In patent US11111237B2, “Bicyclic compound and use thereof” (SK BIOPHARMACEUTICALS CO., LTD., priority 2019, dated 2021):

Target: PRMT5-MEP50 enzyme complex (Homo sapiens (Human), UniProt O14744)
Test: PRMT5 enzyme activity in vitro assay (methylation of histone H4R3, ELISA absorbance at 450 nm)
Format: biochemical
Details: SAM, histone H4 peptide, room temperature 2 hours, 8 points from 10 μM to 0.128 nM
Procedure, shortened: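 IC50 was derived from ELISA absorbance at 450 nm, using primary and HRP antibodies against H4R3 methylation on immobilised histone H4 peptide (residues 1-20). Compounds (10 μM to 0.128 nM, 8 points, 1:5) were incubated 2 h at room temperature with the PRMT5-MEP50 complex and SAM, diluted to 5 μg/mL and 2 μM respectively.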

Chain of PRMT5-MEP50 enzyme complex (O14744 2-637): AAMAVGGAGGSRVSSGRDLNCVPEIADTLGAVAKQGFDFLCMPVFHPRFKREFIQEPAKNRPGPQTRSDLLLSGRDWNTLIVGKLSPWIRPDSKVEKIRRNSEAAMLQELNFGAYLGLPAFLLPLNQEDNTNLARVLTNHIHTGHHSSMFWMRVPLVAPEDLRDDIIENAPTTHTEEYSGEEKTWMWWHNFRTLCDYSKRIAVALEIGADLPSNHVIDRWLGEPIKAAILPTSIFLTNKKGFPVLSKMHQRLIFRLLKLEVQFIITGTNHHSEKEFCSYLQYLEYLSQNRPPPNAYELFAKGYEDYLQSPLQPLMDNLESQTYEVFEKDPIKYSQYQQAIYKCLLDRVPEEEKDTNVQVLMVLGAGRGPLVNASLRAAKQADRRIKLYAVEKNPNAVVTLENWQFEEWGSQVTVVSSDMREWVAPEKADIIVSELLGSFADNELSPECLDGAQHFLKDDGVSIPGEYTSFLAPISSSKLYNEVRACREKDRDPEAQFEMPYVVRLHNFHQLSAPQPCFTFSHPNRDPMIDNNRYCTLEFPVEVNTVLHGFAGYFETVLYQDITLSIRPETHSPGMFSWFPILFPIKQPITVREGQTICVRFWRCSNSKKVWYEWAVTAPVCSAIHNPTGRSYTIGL
Chain of PRMT5-MEP50 enzyme complex (Q9BQA1 2-342 partner): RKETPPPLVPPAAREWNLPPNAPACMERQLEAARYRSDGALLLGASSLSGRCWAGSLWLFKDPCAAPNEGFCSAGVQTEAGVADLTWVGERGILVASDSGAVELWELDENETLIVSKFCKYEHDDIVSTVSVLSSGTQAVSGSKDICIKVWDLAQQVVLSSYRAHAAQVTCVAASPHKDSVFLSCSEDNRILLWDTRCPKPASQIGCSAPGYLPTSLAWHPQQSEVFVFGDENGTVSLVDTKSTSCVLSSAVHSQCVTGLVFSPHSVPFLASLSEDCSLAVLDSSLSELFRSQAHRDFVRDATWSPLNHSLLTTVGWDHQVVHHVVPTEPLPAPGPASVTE

Row | Structure (SMILES) | IC50
1 | O=C1c2ccc(CN3CC4CC3CO4)cc2OCCN1C[C@H](O)CN1CCc2ccccc2C1 (stereo partly drawn) [Example 55, 4-[(2R)-3-(3,4-dihydro-1H-isoquinolin-2-yl)-2-hydroxy-propyl]-8-(2-oxa-5-azabicyclo[2.2.1]heptan-5-ylmethyl)-2,3-dihydro-1,4-benzoxazepin-5-one] | 0.1 to 1 µM
2 | O=C1c2ccc(OC3CCN(CCO)CC3F)cc2OCCN1C[C@H](O)CN1CCc2ccccc2C1 (stereo partly drawn) [Example 208, 4-[(2R)-3-(3,4-dihydro-1H-isoquinolin-2-yl)-2-hydroxy-propyl]-8-[[3-fluoro-1-(2-hydroxyethyl)-4-piperidyl]oxy]-2,3-dihydro-1,4-benzoxazepin-5-one] | 0.1 to 1 µM
3 | C[C@H]1CN(C[C@H](O)CN2CCc3ccccc3C2)C(=O)c2ccc(OC3CCN(C)CC3)cc2O1 [Example 146, (2S)-4-[(2R)-3-(3,4-dihydro-1H-isoquinolin-2-yl)-2-hydroxypropyl]-2-methyl-8-[(1-methyl-4-piperidyl)oxy]-2,3-dihydro-1,4-benzoxazepin-5-one] | 0.1 to 1 µM
4 | CC(c1ccc2c(n1)OC(C)(C)CN(C[C@H](O)CN1CCc3ccccc3C1)C2=O)N1CCOCC1 (stereo partly drawn) [Example 246, 4-[(2R)-3-(3,4-dihydro-1H-isoquinolin-2-yl)-2-hydroxy-propyl]-2,2-dimethyl-8-(1-morpholinoethyl)-3H-pyrido[3,2-f][1,4]oxazepin-5-one] | 0.1 to 1 µM
5 | CCN1CCC(Oc2ccc3c(c2)OC(C)(C)CN(C[C@H](O)CN2CCc4ccccc4C2)C3=O)CC1 [Example 110, 4-[(2R)-3-(3,4-dihydro-1H-isoquinolin-2-yl)-2-hydroxy-propyl]-8-[(1-ethyl-4-piperidyl)oxy]-2,2-dimethyl-3H-1,4-benzoxazepin-5-one] | 0.1 to 1 µM
6 | CN1CCCC(COc2ccc3c(c2)OCCN(C[C@H](O)CN2CCc4ccccc4C2)C3=O)C1 (stereo partly drawn) [Example 107, 4-[(2R)-3-(3,4-dihydro-1H-isoquinolin-2-yl)-2-hydroxy-propyl]-8-[(1-methyl-3-piperidyl)methoxy]-2,3-dihydro-1,4-benzoxazepin-5-one] | 0.001 to 0.1 µM
7 | CN(C)CCOc1ccc2c(c1)OCCN(C[C@H](O)CN1CCc3ccccc3C1)C2=O [Example 72, 4-[(2R)-3-(3,4-dihydro-1H-isoquinolin-2-yl)-2-hydroxy-propyl]-8-[2-(dimethylamino)ethoxy]-2,3-dihydro-1,4-benzoxazepin-5-one] | 0.1 to 1 µM
8 | N#CCN1CCC(Oc2ccc3c(c2)OCCN(C[C@H](O)CN2CCc4ccccc4C2)C3=O)CC1 [Example 159] | 0.1 to 1 µM
9 | CC1CC(C)CN(Cc2ccc3c(c2)OCCN(C[C@H](O)CN2CCc4ccccc4C2)C3=O)C1 (stereo partly drawn) [Example 33, 4-[(2R)-3-(3,4-dihydro-1H-isoquinolin-2-yl)-2-hydroxy-propyl]-8-[(3,5-dimethyl-1-piperidyl)methyl]-2,3-dihydro-1,4-benzoxazepin-5-one] | 0.1 to 1 µM
10 | O=C1c2ccc(OCc3ccnc(F)c3)cc2OCCN1C[C@H](O)CN1CCc2ccccc2C1 [Example 58, 4-[(2R)-3-(3,4-dihydro-1H-isoquinolin-2-yl)-2-hydroxy-propyl]-8-[(2-fluoro-4-pyridyl)methoxy]-2,3-dihydro-1,4-benzoxazepin-5-one] | 0.001 to 0.1 µM
11 | O=C1c2ccccc2CCCN1CC(O)CN1CCc2ccccc2C1 (centres unmarked) [Example 148, 2-[3-(3,4-dihydro-1H-isoquinolin-2-yl)-2-hydroxy-propyl]-4,5-dihydro-3H-2-benzazepin-1-one] | 1 to 10 µM
12 | CN1CCCC(Oc2ccc3c(c2)N(C)CCN(C[C@H](O)CN2CCc4ccccc4C2)C3=O)C1 (stereo partly drawn) [Example 130, 4-[(2R)-3-(3,4-dihydro-1H-isoquinolin-2-yl)-2-hydroxy-propyl]-1-methyl-8-[(1-methyl-3-piperidyl)oxy]-2,3-dihydro-1,4-benzodiazepin-5-one] | 0.1 to 1 µM
13 | CCC1CCCN1Cc1ccc2c(c1)OCCN(C[C@H](O)CN1CCc3ccccc3C1)C2=O (stereo partly drawn) [Example 48, 4-[(2R)-3-(3,4-dihydro-1H-isoquinolin-2-yl)-2-hydroxy-propyl]-8-[(2-ethylpyrrolidin-1-yl)methyl]-2,3-dihydro-1,4-benzoxazepin-5-one] | 0.1 to 1 µM

The remaining lines, values ahead:

Row | IC50 | Structure (SMILES)
14 | 0.1 to 1 µM | O=C1c2ccc(OCC3CCCCC3)cc2OCCN1C[C@H](O)CN1CCc2ccccc2C1 [Example 66, 8-(cyclohexylmethoxy)-4-[(2R)-3-(3,4-dihydro-1H-isoquinolin-2-yl)-2-hydroxy-propyl]-2,3-dihydro-1,4-benzoxazepin-5-one]
15 | 0.001 to 0.1 µM | O=C1c2ccc(CN3CCCC3)cc2OCCN1C[C@H](O)CN1CCc2ccccc2C1 [Example 24, 4-[(2R)-3-(3,4-dihydro-1H-isoquinolin-2-yl)-2-hydroxy-propyl]-8-(pyrrolidin-1-ylmethyl)-2,3-dihydro-1,4-benzoxazepin-5-one]
16 | 0.1 to 1 µM | CN(C)Cc1ccc2c(c1)OCCN(C[C@H](O)CN1CCc3ccccc3C1)C2=O [Example 25, 4-[(2R)-3-(3,4-dihydro-1H-isoquinolin-2-yl)-2-hydroxy-propyl]-8-[(dimethylamino)methyl]-2,3-dihydro-1,4-benzoxazepin-5-one]
17 | 0.1 to 1 µM | O=C1c2ccc(C(F)(F)F)cc2OCCN1C[C@H](O)CN1CCc2ccccc2C1 [Example 5, 4-[(2R)-3-(3,4-dihydro-1H-isoquinolin-2-yl)-2-hydroxy-propyl]-8-(trifluoromethyl)-2,3-dihydro-1,4-benzoxazepin-5-one]
18 | 0.001 to 0.1 µM | O=C1c2ccc(OC3CCN(C(=O)C(F)F)CC3)cc2OCCN1C[C@H](O)CN1CCc2ccccc2C1 [Example 160, 8-[[1-(2,2-difluoroacetyl)-4-piperidyl]oxy]-4-[(2R)-3-(3,4-dihydro-1H-isoquinolin-2-yl)-2-hydroxy-propyl]-2,3-dihydro-1,4-benzoxazepin-5-one]
19 | 0.1 to 1 µM | CCN1CCC(COc2ccc3c(c2)OCCN(C[C@H](O)CN2CCc4ccccc4C2)C3=O)CC1 [Example 103, 4-[(2R)-3-(3,4-dihydro-1H-isoquinolin-2-yl)-2-hydroxy-propyl]-8-[(1-ethyl-4-piperidyl)methoxy]-2,3-dihydro-1,4-benzoxazepin-5-one]
20 | 0.1 to 1 µM | O=C1c2ccc(-c3ccncc3)cc2OCCN1C[C@H](O)CN1CCc2ccccc2C1 [Example 225, 4-[(2R)-3-(3,4-dihydro-1H-isoquinolin-2-yl)-2-hydroxy-propyl]-8-(4-pyridyl)-2,3-dihydro-1,4-benzoxazepin-5-one]
21 | 0.1 to 1 µM | CC1(C)CN(C[C@H](O)CN2CCc3ccccc3C2)C(=O)c2ccc(OCc3ccncc3)cc2O1 [Example 113, 4-[(2R)-3-(3,4-dihydro-1H-isoquinolin-2-yl)-2-hydroxy-propyl]-2,2-dimethyl-8-(4-pyridylmethoxy)-3H-1,4-benzoxazepin-5-one]
22 | 0.1 to 1 µM | O=C1c2ccc(OC3CCN(CCF)CC3)cc2OCCN1C[C@H](O)CN1CCc2ccccc2C1 [Example 163, 4-[(2R)-3-(3,4-dihydro-1H-isoquinolin-2-yl)-2-hydroxy-propyl]-8-[[1-(2-fluoroethyl)-4-piperidyl]oxy]-2,3-dihydro-1,4-benzoxazepin-5-one]
23 | 0.1 to 1 µM | CC(C)(O)CN1CCC(Oc2ccc3c(c2)OCCN(C[C@H](O)CN2CCc4ccccc4C2)C3=O)CC1 [Example 238, 4-[(2R)-3-(3,4-dihydro-1H-isoquinolin-2-yl)-2-hydroxy-propyl]-8-[[1-(2-hydroxy-2-methyl-propyl)-4-piperidyl]oxy]-2,3-dihydro-1,4-benzoxazepin-5-one]
